Reference: US6924302B2, “Substituted triazole diamine derivatives as kinase inhibitors” (Ortho McNeil Pharmaceutical, Inc., priority 2000, dated 2005)
Where two headings read alike, the source gives them in different places.

Assays:
[1] = target: T1, Calmodulin Kinase (calmodulin-dependent protein kinase 2) (Rattus norvegicus, UniProt P11275); assay: Kinase Selectivity Assay Calmodulin Kinase; type: biochemical; settings: Kinase Selectivity, Tables 2a-2k; read-out: Calmodulin Kinase 2 IC50
T1 construct: a truncated version of the alpha subunit of the rat protein; purchased New England Biolabs 6060; host or cells: insect cells
Summary of the method: (§1)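 Inhibition was measured as reduced ^33P-γ-ATP labelling of a biotinylated peptide substrate immobilized on streptavidin plates after one hour at 30° C.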

HCT-116 colon carcinoma = assay: Inhibition of Cell Proliferation (14C-thymidine incorporation), HCT-116; type: cell-based; settings: Homo sapiens, HCT-116 cell line
Experimental: The ability of a test compound to inhibit the proliferation of cell growth was determined by measuring incorporation of ^14C-labelled thymidine into newly synthesized DNA within the cells. This method was used on cell lines derived from carcinomas originating from several tissues such as HeLa cervical adenocarcinoma (American Type Culture Collection (ATCC), Virginia, Cat. #CCL-2), A375 malignant melanoma (ATCC CRL-1619), SK-OV-3 ovarian adenocarcinoma (ATCC HTB-77) HCT-116 colon carcinoma (CCL-247), PC-3 prostate adenocarcinoma (ATCC CRL-1435), and MDA-MB-231 (Xenogen Corp.) In this way the effect of a compound on cell growth of cells with many different phenotypes can be determined. Cells were trypsinized and counted and 3000-8000 cells were added to each well of a 96-well CytoStar tissue culture treated scintillating microplate (Amersham #RPNQ0160) in complete medium in a volume of 100 μl. Cells were incubated for 24 hours in complete medium at 37° C. in an atmosphere containing 5% CO2. Next, 1 μl of test compound in 100% DMSO was added to the wells of the plate. DMSO only was added to control wells. Cells were incubated for 24 more hours in complete medium at 37° C. in an atmosphere containing 5% CO2. Methyl ^14C-thymidine 56 mCi/mmol (NEN #NEC568 or Amersham #CFA532) was diluted in complete medium and 0.2 uCi/well was added to each well of the CytoStar plate in a volume of 20 μl. The plate was incubated for 24 hours at 37° C. plus 5% CO2 in drug plus ^14C-thymidine. The contents of the plate were discarded into a ^14C radioactive waste container by inverting the plate and the plate was washed twice with 200 μl PBS. 200 μl of PBS is added to each well. The top of the plate was sealed with a transparent plate sealer and a white plate backing sealer (Packard #6005199) was applied to the bottom of the plate. The degree of methyl ^14C-thymidine incorporation was quantified on a Packard Top Count.

[2] = target: T2, MAP Kinase (ERK-2 isoform) (Rattus norvegicus, UniProt P63086); assay: Kinase Selectivity Assay MAP Kinase (ERK-2); type: biochemical; settings: Kinase Selectivity, Tables 2a-2k; read-out: ERK 2 IC50
T2 construct: polyhistidine (N); host or cells: E. coli
Summary of the method: as §1

Protein Kinase A = target: T3, Protein Kinase A (Bos taurus, UniProt P00517); assay: Kinase Selectivity Assay Protein Kinase A; type: biochemical, bovine; settings: Kinase Selectivity, Tables 2a-2k; read-out: PKA IC50
T3 construct: purified from bovine heart; purchased Upstate Biotech 14-114; host or cells: bovine heart
Summary of the method: as §1

[3] = system: HeLa cervical adenocarcinoma; assay: Inhibition of Cell Proliferation (14C-thymidine incorporation), HeLa; type: cell-based; settings: Homo sapiens, HeLa cell line
Summary of the method: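 After seeding at 3000-8000 cells per well and a 24 h rest, compound is added and cells incubate 24 h; radiolabelled thymidine (0.2 uCi/well) then goes in for another 24 h. Washed wells are counted for incorporated 14C, relative to DMSO-only wells.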

Insulin Receptor Kinase = Insulin Receptor Kinase (Homo sapiens, UniProt P06213); assay: Kinase Selectivity Assay Insulin Receptor Kinase; type: biochemical; settings: Kinase Selectivity, Tables 2a-2k; read-out: Insulin R Kinase IC50
Summary of the method: as §1

[4] = target: T4, HER2 (human epidermal growth factor receptor-2) (Homo sapiens, UniProt P04626); assay: Kinase Selectivity Assay HER2; type: biochemical
T4 construct: begins at amino acid 676 followed by the remainder of the HER2 cytoplasmic domain; polyhistidine (N)
Summary of the method: as §1

[5] = Kinase Selectivity, Tables 2a-2k, read-out: HER2 Kinase IC50

T4 sequence (P04626 676-1255 limits assumed): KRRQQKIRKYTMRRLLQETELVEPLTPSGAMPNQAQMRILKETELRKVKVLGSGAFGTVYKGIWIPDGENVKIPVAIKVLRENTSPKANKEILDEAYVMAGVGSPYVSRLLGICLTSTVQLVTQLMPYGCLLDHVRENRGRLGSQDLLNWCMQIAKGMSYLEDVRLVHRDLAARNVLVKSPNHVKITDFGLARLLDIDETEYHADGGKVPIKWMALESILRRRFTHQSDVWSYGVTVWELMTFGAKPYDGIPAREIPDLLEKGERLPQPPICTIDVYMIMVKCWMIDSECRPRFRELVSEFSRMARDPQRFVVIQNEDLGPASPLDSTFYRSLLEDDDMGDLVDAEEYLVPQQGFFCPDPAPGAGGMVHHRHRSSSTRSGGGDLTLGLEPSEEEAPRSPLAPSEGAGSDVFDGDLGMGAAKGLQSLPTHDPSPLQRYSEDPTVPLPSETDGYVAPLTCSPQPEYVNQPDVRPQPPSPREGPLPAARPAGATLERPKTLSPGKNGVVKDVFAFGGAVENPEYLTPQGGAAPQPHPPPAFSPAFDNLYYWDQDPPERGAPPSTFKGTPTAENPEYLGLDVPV
T2 sequence (P63086 whole entry, canonical isoform): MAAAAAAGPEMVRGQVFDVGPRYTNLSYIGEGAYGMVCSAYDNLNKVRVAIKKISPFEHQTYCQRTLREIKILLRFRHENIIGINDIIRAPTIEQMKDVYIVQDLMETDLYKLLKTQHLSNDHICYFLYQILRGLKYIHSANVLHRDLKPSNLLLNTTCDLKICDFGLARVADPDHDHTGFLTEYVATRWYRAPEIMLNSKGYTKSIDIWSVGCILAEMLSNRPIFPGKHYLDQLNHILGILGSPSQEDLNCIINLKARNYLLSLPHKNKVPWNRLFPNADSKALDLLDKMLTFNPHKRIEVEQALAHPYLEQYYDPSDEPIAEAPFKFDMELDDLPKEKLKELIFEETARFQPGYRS
Chain of Insulin Receptor Kinase (P06213 980-1352): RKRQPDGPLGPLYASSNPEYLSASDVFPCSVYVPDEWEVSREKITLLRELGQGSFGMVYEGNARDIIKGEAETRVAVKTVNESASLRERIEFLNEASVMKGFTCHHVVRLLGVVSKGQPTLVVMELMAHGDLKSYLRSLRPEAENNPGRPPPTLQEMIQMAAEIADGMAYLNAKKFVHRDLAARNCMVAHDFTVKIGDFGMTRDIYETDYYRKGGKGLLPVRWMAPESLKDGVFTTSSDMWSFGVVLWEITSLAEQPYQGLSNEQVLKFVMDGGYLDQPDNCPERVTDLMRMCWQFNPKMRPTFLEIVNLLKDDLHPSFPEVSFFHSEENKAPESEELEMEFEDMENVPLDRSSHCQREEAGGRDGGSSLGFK

| SMILES | IC50 [1] [µM] | IC50 (HCT-116 colon carcinoma) [nM] | IC50 [2] [µM] | IC50 (Protein Kinase A) [µM] | IC50 [3] [nM] | IC50 (Insulin Receptor Kinase) [µM] | IC50 [4, 5] [µM] | IC50 ([4]; Table 1, read-out: HER2 IC50) [µM] |
| --- | --- | --- | --- | --- | --- | --- | --- | --- |
| Nc1nc(Nc2ccc(S(N)(=O)=O)cc2)nn1C(=O)C1CCCCC1 [Cpd 39, 4-[[5-amino-1-(cyclohexylcarbonyl)-1H-1,2,4-triazol-3-yl]amino]-benzenesulfonamide] | > 100 | 1410 | 13.2 | > 100 | 270 | 19.4 | – | – |
| CN1CCN(c2ccc(Nc3nc(N)n(C(=O)c4c(F)cccc4F)n3)cc2)CC1 [Cpd 71, 1-(2,6-difluorobenzoyl)-N^3-[4-(4-methyl-1-piperazinyl)phenyl]-1H-1,2,4-triazole-3,5-diamine] | 60.9 | – | > 100 | > 100 | 1920 | 35.3 | 1.3 | 1.3 |
| Cc1nc(C)c(C(=O)n2nc(Nc3ccc(S(N)(=O)=O)cc3)nc2N)s1 [Cpd 34, 4-[[5-amino-1-[(2,4-dimethyl-5-thiazolyl)carbonyl]-1H-1,2,4-triazol-3-yl]amino]-benzenesulfonamide] | > 100 | 996 | > 10 | > 100 | 707 | > 10 | – | – |
| Cc1cc(C)c(C(=O)n2nc(Nc3ccc(NS(C)(=O)=O)cc3)nc2N)s1 [Cpd 108, N-[4-[[5-amino-1-[(3,5-dimethyl-2-thienyl)carbonyl]-1H-1,2,4-triazol-3-5 yl]amino]phenyl]-methanesulfonamide] | > 10 | – | 2.39 | – | – | – | 0.042 | 0.0417 |
| Nc1nc(Nc2ccc(S(N)(=O)=O)cc2)nn1C(=O)C1CCCC1 [Cpd 38, 4-[[5-amino-1-(cyclopentylcarbonyl)-1H-1,2,4-triazol-3-yl]amino]-benzenesulfonamide] | > 100 | 2270 | 24.2 | > 100 | 4560 | > 100 | – | – |
| Nc1nc(Nc2ccc(S(N)(=O)=O)cc2)nn1C(=O)c1sccc1Br [Cpd 35, 4-[[5-amino-1-[(3-bromo-2-thienyl)carbonyl]-1H-1,2,4-triazol-3-yl]amino]-benzenesulfonamide] | – | 172 | – | – | 663 | – | – | – |
| CCc1ccc(C(=O)n2nc(Nc3ccc(S(N)(=O)=O)cc3)nc2N)s1 [Cpd 32, 4-[[5-amino-1-[(5-ethyl-2-thienyl)carbonyl]-1H-1,2,4-triazol-3-yl]amino]-benzenesulfonamide] | > 100 | 26 | 0.563 | > 100 | 71 | 0.123 | 0.009 | – |
| CCc1ccc(C(=O)n2nc(Nc3ccc(S(=O)(=O)NC)cc3)nc2N)s1 [Cpd 84, 4-[[5-amino-1-[(5-ethyl-2-thienyl)carbonyl]-1H-1,2,4-triazol-3-yl]amino]-N-methyl-benzenesulfonamide] | > 100 | – | 1.22 | 2.2 | 142 | 0.172 | – | – |
| Cc1ccsc1C(=O)n1nc(Nc2ccc(N3CCNC3=O)cc2)nc1N [Cpd 113, 1-[4-[[5-amino-1-[(3-methyl-2-thienyl)carbonyl]-1H-1,2,4-triazol-3-yl]amino]phenyl]-2-imidazolidinone] | > 10 | 281 | > 100 | > 100 | 242 | > 10 | 0.068 | 0.068 |
| CNS(=O)(=O)c1ccc(Nc2nc(N)n(C(=O)c3c(F)cccc3F)n2)cc1 [Cpd 80, 4-[[5-amino-1-(2,6-difluorobenzoyl)-1H-1,2,4-triazol-3-yl]amino]-N-methyl-benzenesulfonamide] | – | – | – | – | 880 | – | – | 1.12 |
| CNS(=O)(=O)c1ccc(Nc2nc(N)n(C(=O)c3sccc3C)n2)cc1 [Cpd 82, 4-[[5-amino-1-[(3-methyl-2-thienyl)carbonyl]-1H-1,2,4-triazol-3-yl]amino]-N-methyl-benzenesulfonamide] | > 100 | – | 1.95 | > 100 | 245 | 1.1 | – | – |
